Measured values from patent publication US4546079A, “Streptomyces species and process for producing antibiotic” (Bayer Aktiengesellschaft, priority 1981, dated 1985).
*1 amine or outer side, *2 acyl side, *3 side chain or, on linkers, in order; H or OH if unused. Where a SMILES comes first, the peptide text is derived from it. [ ]: non-standard residue; d: D form. ξ: configuration not given here. X1 = Cn1c(=NC(N)=O)ccn(C2SC(C(O)C(N[*:1])C(=O)[*:2])C(O)C2O)c1=O; ξOrn(N(OH)Ac) = CC(=O)N(O)CCCC(N)C(=O)O; ξS = NC(CO)C(=O)O

Tests used:
[1] = system: E. coli 205 Kn; test: animal test (mice), ED100; assay type: in vivo; settings: Escherichia coli, sc, i.p. infection, s.c. treatment, all animals survive, read-out: ED100 after intra-peritoneal infection and subcutaneous treatment
Procedure: (§1) | ED100 after intra-peritoneal | infection and subcutaneous The animals were infected with a quantity of bacteria, which quantity led to the death of the control animals during the course of 24 hours. The ED100 was the dose which allowed all infected and treated animals to survive.

[2] = system: E. coli Neumann; test: animal test (mice), ED100; assay type: in vivo; settings: Escherichia coli, sc, i.p. infection, s.c. treatment, all animals survive, read-out: ED100 after intra-peritoneal infection and subcutaneous treatment
Procedure: as §1

[3] = system: Klebsiella pneumoniae 63; test: animal test (mice), ED100; assay type: in vivo; settings: sc, i.p. infection, s.c. treatment, all animals survive, read-out: ED100 after intra-peritoneal infection and subcutaneous treatment
Procedure: as §1

[4] = system: Staphylococcus aureus; test: animal test (mice), ED100; assay type: in vivo; settings: sc, i.p. infection, s.c. treatment, all animals survive, read-out: ED100 after intra-peritoneal infection and subcutaneous treatment
Procedure: as §1

[5] = system: E. coli Newmann; test: ED100 (complete cure) in the white mouse; assay type: in vivo; settings: Escherichia coli, sc, 0.5 h, once, 30 minutes after infection, subcutaneously
Procedure: An ED100 (complete cure) is found in vivo for the white mouse, at 3 mg of antibiotic/kg of body weight, in the case of infection with E. coli […]; therapy: application once, 30 minutes after infection, subcutaneously.

[6] = system: E. coli 14; test: agar dilution test (NCCLS), in vitro activity; assay type: cell-based
[7] = system: E. coli C 165; test: agar dilution test (NCCLS), in vitro activity; assay type: cell-based
[8] = pH 7
[9] = physchem; settings: organic solvent or mixture

CC(=O)N(O)CCCC(N)C(=O)NC(CCCN(O)C(C)=O)C(=O)NC(CCCN(O)C(C)=O)C(=O)NC(CO)C(=O)NC(C(=O)O)C(O)C1SC(n2ccc(=NC(N)=O)n(C)c2=O)C(O)C1O (stereo not drawn) [BAY i 3265 component B] (H-[ξOrn(N(OH)Ac)][ξOrn(N(OH)Ac)][ξOrn(N(OH)Ac)][ξS][X1]-OH)
ED100 [1]: 0.1 mg/kg
ED100 [2]: 0.5 mg/kg
ED100 [3]: 0.2 mg/kg
ED100 [4]: 0.6 mg/kg
ED100 [5]: 3 mg/kg
in vitro activity [6]: in vitro activity is found
in vitro activity [7]: in vitro activity is found
solubility in water [8]: unlimited solubility
solubility ([9]; chloroform): < 100 µg/mL
solubility ([9]; dimethylformamide): < 10000 µg/mL
solubility ([9]; dimethylsulphoxide): < 10000 µg/mL
solubility ([9]; ether): < 100 µg/mL
solubility ([9]; ethyl acetate): < 100 µg/mL
solubility ([9]; methanol): < 10000 µg/mL
solubility ([9]; petroleum ether): < 100 µg/mL
